The values that follow come from US20170290814A1, “METHODS OF TREATMENT OF CHOLESTASIS AND FIBROSIS” (GENFIT, priority 2016, published 2017).

The subject of assay [1] is TGFβ1-induced expression of α-SMA protein in human intestinal fibroblasts (InMyoFib). The experiment in a line: α-SMA ELISA in TGFβ1-activated human intestinal myofibroblasts. It counts as cell-based. The following applies: TGFβ1 3 ng/ml, 48 h. On the procedure: Cpd.5 was added to serum-deprived intestinal fibroblasts (InMyoFib) 1 hour before the activation with TGFβ1 (3 ng/ml). After 48 hours of incubation, the expression of α-SMA was measured by ELISA. The obtained values were transformed into percentage inhibition over TGFβ1 control. Data are presented as mean (triplicates)±standard deviation (SD). Statistical analyses were performed by one-way ANOVA followed by Bonferroni post-hoc tests, using Sigma Plot 11.0 software. [*: p<0.05; **: p<0.01; ***: p<0.001 (comparison versus TGFβ1 3 ng/mL group)].
The Human Intestinal Myofibroblast (InMyoFib) (Lonza) were cultured in Smooth Muscle Cell Basal Medium (SmBM-2 TM) (Lonza cat #CC-3181) that was supplemented with SmGMTM-2 BulletKit TM (Lonza cat #CC-4149). The complete medium contains 5% fetal bovine serum. For the activation experiments with TGFβ1, the inMyoFib were plated at a density of 10×10^3 cells per well in 96-well plates. The next day, cell-culture medium was removed, and cells were washed with PBS (Invitrogen cat #14190). InMyoFib were deprived for 24 hours in serum-free, insulin-free and rhFGF-B-free medium. […]
(§1) The level of α-SMA was measured using a Sandwich ELISA. […]

In assay [2] the test system is TGFβ1-induced expression of α-SMA protein in human cardiac fibroblasts (NHCF). The experiment in a line: α-SMA ELISA in TGFβ1-activated normal human cardiac fibroblasts. It counts as cell-based. As to conditions: TGFβ1 3 ng/ml, 48 h. On the procedure:
Cpd.5 was added to serum-deprived cardiac fibroblasts (NHCF) 1 hour before the activation with TGFβ1 (3 ng/ml). After 48 hours of incubation, the expression of α-SMA was measured by ELISA. The obtained values were transformed into percentage inhibition over TGFβ1 control. Data are presented as mean (triplicates)±standard deviation (SD). Statistical analyses were performed by one-way ANOVA followed by Bonferroni post-hoc tests, using Sigma Plot 11.0 software. [*: p<0.05; **: p<0.01; ***: p<0.001 (comparison versus TGFβ1 3 ng/mL group)].
The Normal Human Cardiac Fibroblasts (ventricle) (NHCF-V) (Lonza) were isolated from normal, adult heart tissue. Cells were cultured in Fibroblast Basal Medium (FBM) (Lonza cat #CC-3131) that was supplemented with FGM™-3 BulletKit™ kit (Lonza cat #CC-4525). The complete medium contains 10% fetal bovine serum. For the activation experiments with TGFβ1, the NHCF-V were plated at a density of 6×10^3 cells per well in 96-well plates. The next day, cell-culture medium was removed, and cells were washed with PBS (Invitrogen cat #14190). NHCF were deprived for 24 hours in serum-free, insulin-free and rhFGF-B-free medium. […]
as §1
On the technique in general: An ELISA detects its analyte on a solid surface through an enzyme-linked reagent.

Take `[2H]C([2H])([2H])C(=O)Oc1ccccc1C(=O)Nc1ncc([N+](=O)[O-])s1` [Cpd.5, 2-[(5-nitro-1,3-thiazol-2-yl)carbamoyl]phenyl (d3)ethanoate]: in assay [1], the “effect on TGFβ1-induced α-SMA in human intestinal fibroblasts” value is given as “inhibits”. The “effect on TGFβ1-induced α-SMA in human cardiac fibroblasts” value in assay [2] was “inhibits”.
